Reference: patent US7629318B2, “Immunosuppressant compounds, methods and uses related thereto” (priority 2002, dated 2009)
pIC50: −log10 of the molar value. Values joined by “and” are separate entries in the source; they are usually repeats but may differ in a detail not shown here. Equal entries are not always repeated. Numbered stars: 1 amine (or outer) side, 2 acyl side, 3 side chain; on linkers, the order of the positions; unused ones are H or OH. Square brackets hold non-standard residues; d marks the D form. Peptide text beside a SMILES is read from it. X1 = CC(C)c1oc([C@H](CO)N[*:1])nc1C(=O)[*:2]; Pro(3R-Ph) = O=C(O)[C@H]1NCC[C@@H]1c1ccccc1; Tic = O=C(O)[C@@H]1Cc2ccccc2CN1; Cha = N[C@@H](CC1CCCCC1)C(=O)O

Experiments:
[1] = tested on: T cell activation from 0401(DR4) chimeric MHCII-mice; test: In vivo inhibition of T cell activation by co-immunisation, DR4 mice immunised with HEL; set-up: species or system mouse; % Reduction of response to PPD(HEL): concentration or dose not given beside the values
Source text: (§1) Mouse strains DR4 and DR14 carry chimeric MHC-II transgenes that encode the N-terminal domains of the respective DR molecules (forming the peptide binding site) and the remaining (2nd extracellular domains, transmembrane and intracytoplasmic domains) of the murine class II molecule I Ed. These strains are deficient of other murine class II, and thus, all helper T cell responses are triggered by peptides presented in the respective human MHC-II binding site. As an initial in vivo test of subject inhibitors designed to bind to DR, DR-transgenic mice were co-immunized with a pre-defined dose of protein antigen and different amounts of the compound antagonist to be tested. In this set-up, both antigen and compound were emulsified together in complete Freund's adjuvant (CFA), and thus, a direct competition between the two components for presentation by DR was tested. Readout of the assay is ex vivo antigen-specific activation of T cells from regional lymph nodes explanted 9 days after co-immunization. In a typical experiment, antigen dose-response was investigated, and the curves from mice immunized with antigen were compared to those from mice co-immunized with antigen+compound. The dose response curves were generated using lymph node cells pooled at equal numbers from 2-3 mice per experimental group. The experimental system also permits assessment of inherent antigenicity of the compound antagonist. This was done by setting up a dose-response study from the same cell pool using different concentrations of the compund under investigation instead of the antigen. As a specificity control, the response to Purified Protein Derivative (PPD), the major protein component of CFA, was tested in the same cell pool.
(§2) All Gpg conataining compounds have significant immunosupressive properties in one or both of the in-vivo models. Gpg-containing compounds also show improved activity or improved specificity over the Arg-containing equivilent. Further, compounds according to Formula I show activity in this assay.
(§3) Compounds of the invention were injected as an Emulsion prepared using CFA (Bacto Adjuvant Complete H37 Ra, Difco, Order-No. 3113-60); proteins 10 mg/ml in PBS, inhibitors 5 μM in 10% DMSO. CFA, PBS, antigen, and inhibitor were placed in the barrel of a 5-ml syringe (total volume not more than 1 mL). The mixture was sonicated at an amplitude less than 40% (30-35%) for two separated 15 s periods. The emulsion should seem to be hard and not liquid at this point. A drop of emulsion placed on the surface of water should not melt. The resulting emulsion was pushed through the needle into a 1 ml syringe with a needle (Gr.18, 26G×1″), and air bubbles were removed. Mice were co-immunized with 50 μg protein and 210 nM compound antagonist in final 100 μl emulsion into the tail base. Antigen+Compound and CFA are mixed 1:1 vol/vol. The best results are obtained using DR 4 mice immunised with HEL and DR 14 mice immunized with OVA.
(§4) Mice were injected at the tail-base as follows: Holding the tail of a mouse with thumb and middle finger, the index finger was placed under the base of the mouse's tail. The needle of the syringe was inserted about 1.5 cm from the tail base (hairy end) under the skin and pushed about 1 cm into the tail. 100 μl emulsion was injected into the mouse. After 9 days, mice were killed and lymph nodes removed.
(§5) The inhibitory effect of the candidate compounds on T-cell activation was tested using T-cells and antigen-presenting cells isolated from the lymph nodes of chimeric DR4-IE transgenic mice (Taconic, USA) previously co-immunized with hen egg lysozyme plus compound, or DR14-IE transgenic mice co-immunized with ovalbumin plus compound according to standard procedures (Adorini et al., 1988, Mueller et al., 1990; Current Protocols in Immunology, Vol. 2, 7.21; Ito et al., 1996). […]

[2] = tested on: T cell activation from 0404(DR14) chimeric MHCII-mice; test: In vivo inhibition of T cell activation by co-immunisation, DR14 mice immunised with OVA; set-up: species or system mouse; % Reduction of response to PPD(OVA): concentration or dose not given beside the values
Source text: as §1, §2, §3, §4, §5

[3] = target: DR4Dw4 (DRA1*0101 DRB1*0401) (Homo sapiens, UniProt P01903+P01911, A100K/A169T/F76Y/I96L/K127E/L162R/M171V/N62H/P40V/Q125Y/R42H/S133A/S149N/S66Y/V115G/V209L/W38E); test: Competitive binding to MHC-II protein DR4Dw4
Outline: (§6)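 Each MHC-II allele incubated with compound 16 hours at room temperature in duplicate; controls lacked compound, or both compound and MHC-II. Complexes captured 2 h at 4 °C, bound biotinylated peptide detected via europium-streptavidin and DELFIA enhancement, time-resolved fluorescence read at ex 340/em 613 (615) nm.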

[4] = target: DR1 (DRA1*0101 DRB1*0101) (Homo sapiens, UniProt P01903+P01911, A100R/D57E/F55L/F60I/F76Y/I96L/L162R/M171V/P40L/Q125E/R42F/V115G/Y59C); test: Competitive binding to MHC-II protein DR1; details: Protein binding IC50 (nM) 0101, 0101
Outline: as §6

[5] = target: DR4Dw14 (DRA1*0101 DRB1*0404) (Homo sapiens, UniProt P01903+P01911, A100R/A169T/F76Y/I96L/K127E/L162R/M171V/N62H/P40V/Q125Y/R42H/S133A/S149N/S66Y/V209L/W38E); test: Competitive binding to MHC-II protein DR4Dw14; details: 0404; read-out: Protein binding IC50 (nM) 0404
Outline: as §6

[6] = target: T1, Priess (DR4Dw4: DRA1*0101 DRB1*0401) cells (Homo sapiens, UniProt P01903+P01911, A100K/A169T/F76Y/I96L/K127E/L162R/M171V/N62H/P40V/Q125Y/R42H/S133A/S149N/S66Y/V115G/V209L/W38E); test: Competitive binding to MHC II proteins expressed on Priess cells; type: cell-based
T1 construct: MHC II Proteins Expressed on PRIESS and LG2 Cells; endogenous in cells; host or cells: Priess cells
Description: (§7) For use in the binding assay the cells were re-suspended in medium containing 1% FCS at a density of 2.5×10^6 cells/ml.
(§8) The assay was performed in sterile 96 well polystyrene microtiter plates. A 10 fold dilution series of compounds (16 nM-1615 μM) in 1% FCS was prepared from 5 or 10 mM compound stock solutions in 10% DMSO/water. 50 μl of each compound dilution were added in duplicates to 50 μl of a 16 μM solution of indicator peptide in 1% FCS. Cell binding was initiated by adding 100 μl of 2.5×10^6 cells/ml 1% FCS to each well. Controls were included containing the DMSO concentration present in the solution with the highest compound concentration. The cells were incubated at 37° C., 6% CO2. After 4 hours the cells were washed with 200 μl PBS and lysed in 200 μl lysis buffer (50 mM sodium phosphate, 150 mM sodium chloride, 1% (w/v) NP-40, 25 mM iodoacetamide, 1 mM PMSF, 3.1% protease inhibitor cocktail: 0.32 g/l of Chymostatin, Antipain, Pepstatin A, Soybean trypsin inhibitor and Leupeptin each, pH 7.5) for 10 min.
(§9) After washing with PBS, 190 μl of cell lysate were transferred to the appropriate wells of the capture plate and incubated for 2 h at 4° C. The wells were washed six times with 200 μl/well cooled (4 to 8° C.) of 1×DELFIA wash (Wallac-ADL-GmbH, Freiburg), incubated with 100 μl of cooled Europium-streptavidin conjugate (Wallac-ADL-GmbH, Freiburg; diluted 1/1000 with DELFIA assay buffer) for 30 minutes at 4° C., again washed six times with cooled 1×DELFIA wash and, finally, incubated with 200 μl cooled DELFIA enhancement solution (Wallac-ADL-GmbH, Freiburg) for one hour at room temperature before reading the time-resolved europium fluorescence at λex Eu^3+: 340 nm and λem Eu^3+: 613 (615) nm (Wallac Victor^2 1420 Multilabel Counter, Wallac-ADL-GmbH, Freiburg).

[7] = target: T2, LG2 (DR1: DRA1*0101 DRB1*0101) cells (Homo sapiens, UniProt P01903+P01911, A100R/D57E/F55L/F60I/F76Y/I96L/L162R/M171V/P40L/Q125E/R42F/V115G/Y59C); test: Competitive binding to MHC II proteins expressed on LG2 cells; type: cell-based; details: Cell binding IC50 (uM) LG2 (0101), LG2 (0101)
T2 construct: MHC II Proteins Expressed on PRIESS and LG2 Cells; endogenous in cells; host or cells: LG2 cells
Description: as §7, §8, §9

[8] = tested on: T-cell proliferation, lymph node cells of chimeric 0401-IE transgenic mice; details: read-out: Immunsupressive assays DR4-LN (IC50); DR4-LN
Description: The compounds were tested as follows to inhibit the proliferative T cell response of antigen-primed lymph node cells from mice carrying a chimeric mouse-human class II transgene with an RA-associated peptide binding site, and lack murine class II molecules (Muller et al., 1990; Woods et al., 1994; Current Protocols in Immunology, Vol. 2, 7.21; Ito et al., 1996). Here, the immunization takes place in vivo, but the inhibition and readout are ex vivo. […] These mice lack murine MHC class II, and thus, all Th responses are channelled through a single human RA-associated MHC class II molecule (Ito et al. 1996). These transgenic mice represent a model for testing human class II antagonists.
1.5×10^5 cells are incubated in 0.2 ml wells of 96-well tissue culture plates in the presence of ovalbumin (30 μg per well—half-maximal stimulatory concentration) and a dilution series of the compound under test (from around 0.1 to 200 uM) in serum free HL-1 medium containing 2 mM L-glutamine and 0.1 g/l Kanamycin for three days. Antigen specific proliferation is measured by 3H-methyl-thymidine (1 μCi/well) incorporation during the last 16 h of culture (Falcioni et al., 1999). Cells are harvested, and 3H incorporation measured using a scintillation counter (TopCount, Wallac Finland).

[9] = target: Cathepsin B1 (EC 3.4.22.1 from bovine spleen) (Bos taurus, UniProt P07688); details: Cathepsin B, 4 h
Cathepsin L = Cathepsin L (Homo sapiens, UniProt P07711)
[10] = tested on: T-cell proliferation, DR14-LN; details: read-out: Immunsupressive assays DR14-LN (IC50)

Q: How did the “% Reduction of response to HEL” value ([1]; DR4 mice co-immunised with HEL plus compound, mean % inhibition from the control over 3 concentrations of antigen (6.7, 20 and 60 ug)) turn out when “Ac-Cha-Gpg-Disc-Nle-βPhPro-[S(oxaz)L]-NMe2 [Compound P61-1]” was run?
A: 37.9%

Q: And the “% Reduction of response to PPD(HEL)” value ([1]; specificity control: response to PPD in the same cell pool, HEL co-immunised mice)?
A: 32.3%

Q: What about the “% Reduction of response to OVA” value ([2]; DR14 mice co-immunised with OVA plus compound, mean % inhibition from the control over 3 concentrations of antigen (6.7, 20 and 60 ug)) of the same compound?
A: 3.7%

Q: And the “% Reduction of response to PPD(OVA)” value ([2]; specificity control: response to PPD in the same cell pool, OVA co-immunised mice)?
A: 29.9%

Q: How did the pIC50 [3] turn out when `CSCC[C@H](NC(=O)[C@@H]1Cc2ccccc2CN1C(=O)[C@H](CCCNC(=N)N)NC(=O)[C@H](CC1CCCCC1)NC(C)=O)C(=O)N1CC[C@H](c2ccccc2)[C@H]1C(=O)N[C@@H](CO)c1nc(C(=O)N(C)C)c(C(C)C)o1` [Compound P33, Ac-Cha-Arg-Tic-Met-βPhPro-[S(oxaz)L]-NMe2] (Ac-[Cha]R[Tic]M[Pro(3R-Ph)][X1]-NMe2) was run?
A: 6.52

Q: What about the IC50 [4] of the same compound?
A: 190 nM

Q: What about the IC50 [5] of the same compound?
A: 220 nM

Q: What about the pIC50 [6] of the same compound?
A: 5.49

Q: And the IC50 [7]?
A: 4.6 µM

Q: What about the pIC50 [8] of the same compound?
A: 4.40

Q: What about the “Stability (Arbitrary units) Cath B 4 h” value [9] of the same compound?
A: 97 Arbitrary units and 98 Arbitrary units

Q: And the “Stability (Arbitrary units) Cath L 4 h” value (Cathepsin L)?
A: 107 Arbitrary units

Q: What about the pIC50 [10] of the same compound?
A: 4.49
